The term IC50 denotes the midpoint of a concentration-inhibition curve.

The test system of the assay is SARS-CoV2 original Wuhan strain, Alpha, Delta and Omicron viruses. Nature of the assay: Replication of SARS-CoV-2 circulating forms in pulmonary A549-ACE2 cells. The following applies: Severe acute respiratory syndrome coronavirus 2, read-out: IC50, block of viral replication of all variants. It counts as cell-based.

Consider `O=S(=O)(c1ccccc1)n1c(-c2cncc(-c3cc4cc(OCc5ccccc5)ccc4n3S(=O)(=O)c3ccccc3)c2)cc2cc(OCc3ccccc3)ccc21` [AB-00011778], for which the IC50 lay in the range of 500 to 1000 nM.

The values above are taken from patent US20260158015A1 (Universite De Bordeaux, priority 2021, published 2026).
